Experiments:
foxtail, giant [1] = assay: Test A preemergence; format: in vivo, Setaria faberi; conditions: visual injury after 10 days, 0 to 100 scale, 0 is no effect, 100 is complete control
Method in brief: (§1)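 Loam/sand soil; pre-em directed soil spray at planting, post-em spray at 1–2 leaf (2–10 cm). Compound in non-phytotoxic solvent + surfactant. Greenhouse 10 d; visual injury vs untreated, 0 = no effect, 100 = complete control.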

ragweed [2] = assay: Test A preemergence; format: in vivo, Ambrosia artemisiifolia; conditions: visual injury after 10 days, 0 to 100 scale, 0 is no effect, 100 is complete control
Method in brief: as §1

wheat [3] = assay: Test A preemergence; format: in vivo, Triticum aestivum; conditions: visual injury after 10 days, 0 to 100 scale, 0 is no effect, 100 is complete control
Method in brief: as §1

ragweed [4] = assay: Test A postemergence; format: in vivo, Ambrosia artemisiifolia; conditions: postemergence, 10 days
Method in brief: as §1

soybean [5] = assay: Test A postemergence; format: in vivo, Glycine max; conditions: 500 g ai/ha, postemergence, 10 days, visual injury, 0 to 100 scale (0 no effect, 100 complete control)
Method in brief: as §1

barnyardgrass [6] = assay: Test A preemergence; format: in vivo, Echinochloa crusgalli; conditions: visual injury after 10 days, 0 to 100 scale, 0 is no effect, 100 is complete control
Source text: (§2) Seeds of plant species selected from barnyardgrass (Echinochloa crusgalli), blackgrass (Alopecurus myosuroides), corn (Zea mays), foxtail, giant (giant foxtail, Setaria faberi), goosegrass (Eleusine indica), kochia (Bassia scoparia), oat, wild (wild oat, Avena fatua), pigweed, palmer (palmer amaranth, palmer pigweed, Amaranthus palmeri), Pigweed, Redroot (redroot pigweed, Amaranthus retroflexus), ragweed (common ragweed, Ambrosia artemisiifolia), ryegrass, Italian (italian ryegrass, Lolium multiflorum), soybean (Glycine max), and wheat (Triticum aestivum) were planted into a blend of loam soil and sand and treated preemergence with a directed soil spray using test chemicals formulated in a non-phytotoxic solvent mixture which included a surfactant. At the same time, plants selected from these crops and weed species and also galium (catchweed bedstraw, Galium aparine) and horseweed (Erigeron canadensis) were planted in pots containing the same blend of loam soil and sand and treated with postemergence applications of test chemicals formulated in the same manner. Plants ranged in height from 2 to 10 cm and were in the one- to two-leaf stage for the postemergence treatment. Treated plants and untreated controls were maintained in a greenhouse for 10 days, after which time all treated plants were compared to untreated controls and visually evaluated for injury. Plant response ratings, summarized in Table A, are based on a 0 to 100 scale where 0 is no effect and 100 is complete control. A dash (-) response means no test result.

galium = assay: Test A postemergence; format: in vivo, Galium aparine; conditions: postemergence, 10 days
Method in brief: as §1

wheat [7] = assay: Test A postemergence; format: in vivo, Triticum aestivum; conditions: postemergence, 10 days
Method in brief: as §1

pigweed, palmer [8] = assay: Test A preemergence; format: in vivo, Amaranthus palmeri; conditions: visual injury after 10 days, 0 to 100 scale, 0 is no effect, 100 is complete control
Method in brief: as §1

barnyardgrass [9] = assay: Test B flooded paddy test; format: in vivo, Echinochloa crus-galli; conditions: 250 g ai/ha, Flood, 13 days, 0 to 100 scale (0 no effect, 100 complete control)
Method in brief: (§3)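 Compound is introduced into paddy water covering soil by 3 cm, treating plants that have reached two leaves. Pots are kept flooded at that depth under greenhouse conditions. Assessment at 13 days gives a 0–100 visual control score.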

kochia [10] = assay: Test A postemergence; format: in vivo, Bassia scoparia; conditions: postemergence, 10 days
Method in brief: as §1

rice = assay: Test B flooded paddy test; format: in vivo, Oryza sativa; conditions: 250 g ai/ha, Flood, 13 days, 0 to 100 scale (0 no effect, 100 complete control)
Method in brief: as §3

pigweed, palmer [11] = assay: Test A postemergence; format: in vivo, Amaranthus palmeri; conditions: postemergence, 10 days
Method in brief: as §1

soybean [12] = assay: Test A preemergence; format: in vivo, Glycine max; conditions: visual injury after 10 days, 0 to 100 scale, 0 is no effect, 100 is complete control
Method in brief: as §1

ryegrass, Italian [13] = assay: Test A preemergence; format: in vivo, Lolium multiflorum; conditions: visual injury after 10 days, 0 to 100 scale, 0 is no effect, 100 is complete control
Method in brief: as §1

oat, wild [14] = assay: Test A postemergence; format: in vivo, Avena fatua; conditions: postemergence, 10 days
Method in brief: as §1

sedge, umbrella = assay: Test B flooded paddy test; format: in vivo, Cyperus difformis; conditions: 250 g ai/ha, Flood, 13 days, 0 to 100 scale (0 no effect, 100 complete control)
Method in brief: as §3

blackgrass [15] = assay: Test A preemergence; format: in vivo, Alopecurus myosuroides; conditions: visual injury after 10 days, 0 to 100 scale, 0 is no effect, 100 is complete control
Method in brief: as §1

barnyardgrass [16] = assay: Test A postemergence; format: in vivo, Echinochloa crusgalli; conditions: postemergence, 10 days
Source text: as §2

oat, wild [17] = assay: Test A preemergence; format: in vivo, Avena fatua; conditions: visual injury after 10 days, 0 to 100 scale, 0 is no effect, 100 is complete control
Method in brief: as §1

blackgrass [18] = assay: Test A postemergence; format: in vivo, Alopecurus myosuroides; conditions: postemergence, 10 days
Method in brief: as §1

corn [19] = assay: Test A postemergence; format: in vivo, Zea mays; conditions: postemergence, 10 days
Method in brief: as §1

ducksalad = assay: Test B flooded paddy test; format: in vivo, Heteranthera limosa; conditions: 250 g ai/ha, Flood, 13 days, 0 to 100 scale (0 no effect, 100 complete control)
Method in brief: as §3

foxtail, giant [20] = assay: Test A postemergence; format: in vivo, Setaria faberi; conditions: postemergence, 10 days
Method in brief: as §1

corn [21] = assay: Test A preemergence; format: in vivo, Zea mays; conditions: visual injury after 10 days, 0 to 100 scale, 0 is no effect, 100 is complete control
Method in brief: as §1

kochia [22] = assay: Test A preemergence; format: in vivo, Bassia scoparia; conditions: visual injury after 10 days, 0 to 100 scale, 0 is no effect, 100 is complete control
Method in brief: as §1

ryegrass, Italian [23] = assay: Test A postemergence; format: in vivo, Lolium multiflorum; conditions: postemergence, 10 days
Method in brief: as §1

horseweed = assay: Test A postemergence; format: in vivo, Erigeron canadensis; conditions: postemergence, 10 days
Method in brief: as §1

[24] = 125 g ai/ha, 0 to 100 scale, 0 no effect, 100 complete control
[25] = 500 g ai/ha, visual injury, 0 to 100 scale (0 no effect, 100 complete control)

CC(C)c1ncn(-c2ccc(OC(F)(F)F)c(C(=O)N3C[C@H](C)Oc4c(Cl)cccc43)c2)n1 [Compound 111]
Plant response rating, Foxtail, Giant (foxtail, giant [1]; 125 g ai/ha): 100 | Plant response rating, Foxtail, Giant (foxtail, giant [1]; 500 g ai/ha): 100 | Plant response rating, Ragweed (ragweed [2]; 125 g ai/ha): 20 | Plant response rating, Ragweed (ragweed [2]; 500 g ai/ha): 90 | Plant response rating, Wheat (wheat [3]; 125 g ai/ha): 60 | Plant response rating, Wheat (wheat [3]; 500 g ai/ha): 90 | Ragweed plant response rating (ragweed [4]; [24]): 60 | Plant response rating, Ragweed (ragweed [4]; [25]): 70 | Plant response rating, Soybean (soybean [5]): 100 | Plant response rating, Barnyardgrass (barnyardgrass [6]; 125 g ai/ha): 90 | Plant response rating, Barnyardgrass (barnyardgrass [6]; 500 g ai/ha): 100 | Galium plant response rating (galium; [24]): 100 | Plant response rating, Galium (galium; [25]): 100 | Wheat plant response rating (wheat [7]; [24]): 10 | Plant response rating, Wheat (wheat [7]; [25]): 40 | Plant response rating, Pigweed, Palmer (pigweed, palmer [8]; 125 g ai/ha): 90 | Plant response rating, Pigweed, Palmer (pigweed, palmer [8]; 500 g ai/ha): 100 | Plant response rating, Barnyardgrass (barnyardgrass [9]): 55 | Kochia plant response rating (kochia [10]; [24]): 80 | Plant response rating, Kochia (kochia [10]; [25]): 100 | Plant response rating, Rice (rice): 0 | Pigweed, Palmer plant response rating (pigweed, palmer [11]; [24]): 70 | Plant response rating, Pigweed, Palmer (pigweed, palmer [11]; [25]): 90 | Plant response rating, Soybean (soybean [12]; 125 g ai/ha): 70 | Plant response rating, Soybean (soybean [12]; 500 g ai/ha): 100 | Plant response rating, Ryegrass, Italian (ryegrass, Italian [13]; 125 g ai/ha): 70 | Plant response rating, Ryegrass, Italian (ryegrass, Italian [13]; 500 g ai/ha): 100 | Oat, Wild plant response rating (oat, wild [14]; [24]): 40 | Plant response rating, Oat, Wild (oat, wild [14]; [25]): 50 | Plant response rating, Sedge, Umbrella (sedge, umbrella): 98 | Plant response rating, Blackgrass (blackgrass [15]; 125 g ai/ha): 30 | Plant response rating, Blackgrass (blackgrass [15]; 500 g ai/ha): 70 | Barnyardgrass plant response rating (barnyardgrass [16]; [24]): 30 | Plant response rating, Barnyardgrass (barnyardgrass [16]; [25]): 80 | Plant response rating, Oat, Wild (oat, wild [17]; 125 g ai/ha): 70 | Plant response rating, Oat, Wild (oat, wild [17]; 500 g ai/ha): 90 | Blackgrass plant response rating (blackgrass [18]; [24]): 40 | Plant response rating, Blackgrass (blackgrass [18]; [25]): 50 | Corn plant response rating (corn [19]; [24]): 40 | Plant response rating, Corn (corn [19]; [25]): 80 | Plant response rating, Ducksalad (ducksalad): 65 | Foxtail, Giant plant response rating (foxtail, giant [20]; [24]): 90 | Plant response rating, Foxtail, Giant (foxtail, giant [20]; [25]): 90 | Plant response rating, Corn (corn [21]; 125 g ai/ha): 30 | Plant response rating, Corn (corn [21]; 500 g ai/ha): 40 | Plant response rating, Kochia (kochia [22]; 125 g ai/ha): 80 | Plant response rating, Kochia (kochia [22]; 500 g ai/ha): 90 | Ryegrass, Italian plant response rating (ryegrass, Italian [23]; [24]): 30 | Plant response rating, Ryegrass, Italian (ryegrass, Italian [23]; [25]): 60 | Horseweed plant response rating (horseweed; [24]): 10 | Plant response rating, Horseweed (horseweed; [25]): 50
